Measured values reported in patent US20100144888A1, “PESTICIDAL METHODS AND COMPOSITIONS FOR MODULATING GABA RECEPTORS” (ECOSMART TECHNOLOGIES, INC., priority 2008, published 2010).

What was measured:
House Fly GABA receptor = target: T1, House Fly GABA receptor (Musca domestica, UniProt Q75NA5); assay: [3H]-TBOB binding assay, house fly GABA receptor; settings: for modulation of the house fly GABA receptor: based on [3H]-TBOB-house fly GABA receptor binding assay, FIGS. 1-7; for effect on [3H]-TBOB binding activity: house fly GABA receptor, 4 nM [3H]-TBOB
T1 sequence (Q75NA5 30-576): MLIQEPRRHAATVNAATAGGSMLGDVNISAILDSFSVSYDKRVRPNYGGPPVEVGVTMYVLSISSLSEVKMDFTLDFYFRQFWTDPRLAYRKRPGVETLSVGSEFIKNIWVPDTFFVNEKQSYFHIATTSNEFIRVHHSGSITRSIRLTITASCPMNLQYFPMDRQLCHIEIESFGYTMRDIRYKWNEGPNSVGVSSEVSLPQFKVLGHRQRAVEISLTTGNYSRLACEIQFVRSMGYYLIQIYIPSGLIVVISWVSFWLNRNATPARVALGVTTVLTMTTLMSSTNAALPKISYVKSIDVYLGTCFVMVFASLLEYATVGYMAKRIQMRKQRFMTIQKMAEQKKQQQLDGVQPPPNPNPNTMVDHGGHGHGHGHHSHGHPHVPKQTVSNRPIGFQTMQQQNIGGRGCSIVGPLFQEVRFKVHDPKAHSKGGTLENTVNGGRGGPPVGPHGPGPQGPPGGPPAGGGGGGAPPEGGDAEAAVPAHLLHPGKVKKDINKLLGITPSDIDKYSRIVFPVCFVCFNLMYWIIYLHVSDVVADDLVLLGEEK
Procedure: [^3H]-TBOB Assay. In this study, five monoterpenoids (Pulegone, Thymol, Alpha-terpineol, Linalool and Carvacrol) were investigated to determine their modulation effects on [^3H]TBOB (t-butylbicycloorthobenzoate) binding to housefly GABA (Gamma-aminobutyric acid) receptors.
House fly heads (200) were homogenized in 10 mM tris-HCL buffer (pH 7.5) containing 0.25M sucrose (buffer A) with a glass homogenizer. The homogenate was centrifuged at 1,000×g for 5 minutes. The supernatant was filtered by four layers cheesecloth and centrifuged at 25,000×g for 30 minutes. The supernatant was discarded, and the pellet was homogenized and resuspended in buffer A for 30 minutes. The suspension was centrifuged at 25,000×g for 30 minutes. The final pellet was suspended in 10 mM phosphate buffer (pH 7.5) containing 300 mM NaCL (buffer B) and used directly for the assays.
(§1) 100 μl membrane was incubated for 70 minutes at room temperature with 4 nM [^3H]-TBOB, different amounts of candidate inhibitor and buffer B. The total assay buffer volume was 500 μl. After incubation, samples were filtered by glass fiber filter papers and washed with 5 ml ice-cold buffer B 3 times. Radioactivity was measured by liquid scintillation counter. Specific binding was calculated as the difference between the total ^3H bound and nonspecific ^3H bound with 100 μM picrotoxin.

Mouse GABAa receptor = assay: [3H]-TBOB binding assay, mouse GABAa receptor; settings: means±S.D., n=3, FIG. 1, read-out: IC50, inhibition of [3H]-TBOB binding
Procedure: as §1

[1] = tested on: insect GABA receptor (American cockroach CNS membrane microsacs); assay: GABA-activated 36Cl- uptake assay in membrane microsacs; format: biochemical, Periplaneta americana; settings: for modulation of Cl- uptake: American cockroach membrane microsacs, 1 μM GABA, FIGS. 8-15; for type of modulation of the insect GABA receptor: conclusion from 36Cl- uptake results
Procedure: Cockroach CNS Membrane Microsacs Preparation: Thoracic and abdominal ganglia were removed from 30 American cockroaches and homogenized in 8.0 ml ice-cold buffer of the following composition (in millimoles per liter): NaBr, 145; KBr, 5.0; MgSO4, 1.0; Ca(NO3)2, 1.0; D-glucose, 10.0; N-2-hydroxyethylpiperazine-N′-2-ethanesulphonic acid (HEPES), 10.0 (adjusted to pH 7.5). The homogenate was centrifuged in 1.0 ml aliquots at 10,000×g for 20 min, and the pellets were re-suspended in buffer, re-centrifuged and finally re-suspended in buffer for assaying GABA-activated ^36Cl— uptake.
Cockroach GABA-activated ^36Cl— Uptake: Aliquots (200 μl) of this microsac preparation were incubated at 30° C. for 3 min after which 150 μl of a solution of ^36Cl— (0.2 μCi ml-l; specific activity 580 μCi mmol^−1) containing 1 μM GABA was added. Candidate monoterpenoids were incubated with the tissue sample for 3 min before addition of the solution containing ^36Cl— and GABA. To stop the influx of 36CL—, 2.0 m1 of ice cold buffer was added (after 10 s) and the solution was rapidly filtered over a glass-fiber filter (Whatman GF/C) followed by a 10-ml wash with ice-cold buffer. Filters, which then contained the microsacs, are placed into scintillation vials, and the scintillation cocktail was added. The vials were counted in the liquid scintillation counter, and the amount of ^36Cl— taken up into the microsacs was measured and calculated on the molar basis.

Row | SMILES | modulation of the house fly GABA receptor (House Fly GABA receptor) | effect on [3H]-TBOB binding activity (House Fly GABA receptor) | IC50 (Mouse GABAa receptor) [µM] | modulation of Cl- uptake [1] | type of modulation of the insect GABA receptor [1]
1 | C=CC(C)(O)CCC=C(C)C (stereo not shown) [linalool] | modulated the house fly GABA receptor | potentiated the binding |  |  | 
2 | CC1=CCC(C(C)(C)O)CC1 (stereo not drawn) [alpha-terpineol] | modulated the house fly GABA receptor | lesser effects |  |  | 
3 | ClC1=C(Cl)[C@]2(Cl)[C@@H]3[C@@H]4C[C@@H]([C@H]5O[C@@H]45)[C@@H]3[C@@]1(Cl)C2(Cl)Cl [Dieldrin] |  |  | 3.78 ± 0.45 |  | 
4 | CC(C)=C1CC[C@@H](C)CC1=O [Pulegone] | modulated the house fly GABA receptor | potentiated the binding |  | modulate Cl— uptake | 
5 | Cc1ccc(C(C)C)cc1O [carvacrol] | modulated the house fly GABA receptor | potentiated the binding |  | modulate Cl— uptake | positive modulators
6 | Cc1ccc(C(C)C)c(O)c1 [thymol] | modulated the house fly GABA receptor | potentiated the binding |  | modulate Cl— uptake | positive modulators
